Entries after “also recorded” stand apart in the source; their conditions may differ. Where two headings read alike, the source gives them in different places. Where a SMILES comes first, the peptide text is derived from it. The star is where a group is joined. Cbz = O=C(OCc1ccccc1)*
What was measured:
[1] = system: HCT116-BP10 (BaxΔ2 positive) versus HCT116-BN28 (BaxΔ2 negative) sublines; assay: Cell death assay of HCT116 sublines treated with chemotherapeutic drugs for 36 hours; type: cell-based, human; conditions: Adriamycin (40 ug/ml) or 5-FU (500 ug/ml), compared with BaxΔ2 negative subline
Protocol: FIG. 8. […] Adr, Adriamycin; Etop, Etoposide; 5-FU, 5-fluorouracil; Contr, control.
BaxΔ2 positive (HCT116-BP10) and negative (HCT116-BN28) sublines were treated with Adriamycin (40 ug/ml) or 5-FU (500 ug/ml) for 36 hours in a regular cell culture medium. […] Both Adriamycin and Etoposide are in the same category as topoisomerase inhibitors; and both 5-FU and Cytoxan are in the same class of alkaloid drugs.

[2] = system: Bid; assay: Immunoblotting analysis of cleaved Bid in clone #10; type: cell-based, human; conditions: BaxΔ2-positive clone #10 cells
Protocol: (§1) FIG. 10. The Bid-dependent mitochondrial death pathway is not essential for the onset of chemodrug-induced apoptosis in BaxΔ2-positive cells. A, Immunoblotting analysis of cleaved Bid in HCT116 clone #10 and #28 cells treated with or without 5-FU (500 μM) or Adriamycin ([…]) as indicated. The intensities of truncated Bid bands were quantitated relevant to the actin control and are presented as arbitrary numbers. B, Cell death assay of HCT116 clone #10 cells treated with 5-FU (500 μM) in the presence of a Bid specific inhibitor (BI-6C9; 10 μM) or Bid siRNA. C, Cell death assay of clone #10 cells treated with 5-FU (500 μM) in the presence of a caspase-9 inhibitor (LEHD (SEQ ID NO: 7); 50 μM) or transfected with a caspase-9 dominant negative (D/N) mutant construct. D, Representative images of JC-1 staining. Carbonyl cyanide 4-(trifluoromethoxy) phenylhydrazone (FCCP; 100 μM) was used as a positive control. JC-1 monomer green fluorescence as observed by excitation with 488 nm and emission with 529 nm (top panel). JC-1 aggregate red fluorescence as observed by excitation at 546 nm and emission at 590 nm (bottom panel).
(§2) Caspase-8 is one of the initiator caspases in the extrinsic death receptor pathway. […] We next determined if the Bid-dependent mitochondrial death pathway was required for BaxΔ2 to promote apoptosis. […]

[3] = system: HCT116 isogenic subline clone #10 (BaxΔ2-positive); type: cell-based, human; conditions: Table 5 screening
Protocol: Colon cancer cell line HCT116 was obtained from American Type Culture Collection. The cell line was tested and authenticated by Genetica (Cincinnati. Ohio) before the experiments. Both HCT116 and Bax^−/− mouse embryonic fibroblasts (MEFs) cells were cultured in DMEM supplemented with 10% FBS. To isolate single cell population from HCT116 cells, cells were treated with 500 μM Indomethacin for 72 h to enrich Bax G7 population. Single-cell suspension was plated onto 96-well plates without Indomethacin. Single clones were recovered, expanded, and validated by both genomic sequencing and RT-PCR analysis.
However, the heterogeneity of different cell lines often adds complexity to data interpretation. […] For the initial screening, we selected a panel of different classes of commonly used chemotherapeutic drugs.

[4] = system: caspase-8; assay: Immunoblotting for cleaved caspase-8 in chemodrug treated clone #10; type: cell-based, human; conditions: 5-FU (500 μM) or Adriamycin (4 μg/ml) 24 h
Protocol: (§3) FIG. 9. BaxΔ2 promotes apoptosis through activation of caspase-8. A, Cell death assay of HCT116 clone #10 and clone #28 cells treated with or without 5-FU (500 μM) or Adriamycin (Adr, 4 μg/ml) for 24 h in the presence of inhibitors (50 μM each) for caspase-3 (DEVD) SEQ ID NO: 4), caspase-8 (IETD) (SEQ ID NO: 5), caspase-1 (YVAD) (SEQ ID NO: 6), and caspase-9 (LEHD) (SEQ ID NO: 7) as indicated. ** P<0.01. inh., inhibitor. B, Caspase-3 assay of HCT116 clone #10 and #28 cells treated as described in (A). The activity of caspase-3 was measured using fluorogenic caspase-3 substrate DEVD-AFC (SEQ ID NO: 4) (50 μM) with a microplate spectrofluorometer. C, Immunoblotting analysis for the detection of cleaved casapase-8 in the chemodrug treated clone #10 and #28 cells with an anti-cleaved caspase-8 antibody.
(§4) Bax typically targets the mitochondria upon activation and results in the activation of the caspase-9 and caspase-3 cascade for cell death. To determine the underlying mechanism by which BaxΔ2 promoted cell death, HCT116 clones #10 and #28 were treated with Adriamycin or 5-FU in the presence of different caspase inhibitors. […] The caspase-3 activity was confirmed by the caspase-3 fluorometric assay (FIG. 9B). […]

[5] = system: colon cancer LoVo cells (G7/G9); conditions: previously shown; cited from earlier work
[6] = system: prostate cancer 104-R cells (G7/G7); conditions: previously shown; cited from earlier work
[7] = system: BaxΔ2 protein; assay: Immunoblotting of BaxΔ2 protein after MG-132 treatment, clone #10; type: cell-based, human; conditions: clone #10 (HCT116-BP10); MG-132 10 μM for 8 h
Protocol: (§5) FIG. 7. Generation and characterization of the isogenic subline cells with the different Bax microsatellite status. A, Schematic diagram of generating the HCT116 sublines. Cells were treated with 500 μM Indomethacin for 72 h. A single cell suspension was plated into 96-well plates without Indomethacin. Bax microsatellite statuses (G8/G8, G8/G7, or G7/G7) of each sublines were determined by genomic sequencing as described in the methods. B, RT-PCR analysis of Bax alternative splicing and BaxΔ2 production. The cDNAs were generated from HCT116 clones #10 (G7/G7 genotype) and clone #28 (G8/G7 genotype) with a set of primers that cover Bax exon 1 through exon 6, or primers specific for BaxΔ2 as described in the methods. The PCR products of Baxα and BaxΔ2 plasmid DNA were used as controls. […] Total 1×10^4 cells were seeded onto 24-well plates and the cell numbers were counted every 24 h up to 96 h. […]
(§6) We then determined the expression of endogenous BaxΔ2 proteins in the HCT116 clones #10 and #28 subline cells using a specific anti-BaxΔ2 antibody. […] Of note, both clone #10 and clone #28 had no detectable parental Baxα proteins, as analyzed by immunoblotting using several anti-Baxα antibodies (FIG. 7C and data not shown).

[8] = system: BaxΔ2 protein; assay: Immunoblotting of BaxΔ2 protein after MG-132 treatment, clone #28; type: cell-based, human; conditions: clone #28 (HCT116-BN28); MG-132 10 μM for 8 h
Protocol: as §5, §6

[9] = system: HCT116 clone #10; assay: Cell death assay of clone #10 treated with 5-FU with Bid or caspase-9 inhibition; type: cell-based, human; conditions: clone #10 treated with 5-FU (500 μM); BI-6C9 10 μM; LEHD 50 μM
Protocol: as §1, with “(bottom panel). […]” for “(bottom panel).”
as §2

[10] = system: HCT116 clone #10; assay: Cell death assay with chemodrug in the presence of caspase inhibitors; type: cell-based, human; conditions: clone #10 treated with 5-FU (500 μM) or Adriamycin (4 μg/ml) 24 h; inhibitors 50 μM each
Protocol: as §3, §4

## O=c1[nH]cc(F)c(=O)[nH]1 [5-FU, 5-Fluorouracil]
[1]
  Sensitivity of BaxΔ2 positive clone #10 cells to treatment (cell death assay): more sensitive
[2]
  Bid degradation (cleaved Bid): partially degraded
[3]
  Sensitivity of BaxΔ2-positive clone #10 compared with BaxΔ2-negative clone #28: highly sensitive; also recorded: selectively sensitive
[4]
  Caspase-8 activation (cleaved caspase-8 fragments 43 kDa and 18 kDa): activated

## COc1cccc2c1C(=O)c1c(O)c3c(c(O)c1C2=O)C[C@@](O)(C(=O)CO)C[C@@H]3O[C@H]1C[C@H](N)[C@H](O)[C@H](C)O1 [Doxorubicin, doxorubicin]
[1]
  Sensitivity of BaxΔ2 positive clone #10 cells to treatment (cell death assay): more sensitive
[5]
  Sensitivity to treatment compared with cancer cells with wild type Bax: more sensitive
[2]
  Bid degradation (cleaved Bid): partially degraded
[3]; listed as Adriamycin
  Sensitivity of BaxΔ2-positive clone #10 compared with BaxΔ2-negative clone #28: more sensitive; also recorded: selectively sensitive
[4]
  Caspase-8 activation (cleaved caspase-8 fragments 43 kDa and 18 kDa): activated
[6]
  Sensitivity to treatment compared with cancer cells with wild type Bax: more sensitive

## CC(C)C[C@@H](C=O)NC(=O)[C@H](CC(C)C)NC(=O)[C@H](CC(C)C)NC(=O)OCc1ccccc1 [MG-132] (Cbz-Leu-Leu-Leu-aldehyde)
[7]
  Detection of BaxΔ2 proteins after treatment: easily detected
[8]
  Detection of BaxΔ2 proteins after treatment: no detectable BaxΔ2 proteins

## Bid siRNA: Bid siRNA (5′GGGCAAAAGC UUACAAAUAUU3′) (SEQ ID NO: 47) (GGGCAAAAGCUUACAAAUAUU; listed as RNA, chemistry not given here)
[9]
  Effect on chemodrug-induced apoptosis: did not significantly affect

## Z-DEVD-FMK (N-Z, C-terminal fluoromethylketone) [caspase-3 inhibitor]
[10]
  Inhibition of chemodrug-induced apoptosis: effectively inhibited

## Z-IETD-FMK (N-Z, C-terminal fluoromethylketone) [caspase-8 inhibitor]
[10]
  Inhibition of chemodrug-induced apoptosis: effectively inhibited

Source: US9504687B2, “Treating Bax(Δ)2-positive cancer with chemotherapies targeting caspase 8” (Mumetel, LLC, priority 2013, dated 2016)
